Structures are written as SMILES. pEC50, pIC50: −log10 of the molar value. Like-named read-outs stand apart in the source and are kept apart here. Where only a bound is given, the exact number is not on record here.

The subject of test [1] is HCV replicon in HUH-7 cells. The test can be described thus: HCV replicon FRET assay. The test is classed as cell-based, Hepatitis C virus (strain 1b). Particulars: Table 1. An excerpt:
An HCV replicon whole cell system was established as described by Lohmann V, Korner F, Koch J, Herian U, Theilmann L, Bartenschlager R., Science 285(5424): 110-3 (1999). This system enabled us to evaluate the effects of our HCV Protease compounds on HCV RNA replication. Briefly, using the HCV strain 1b sequence described in the Lohmann paper (Assession number: AJ238799), an HCV cDNA was synthesized by Operon Technologies, Inc. (Alameda, Calif.), and the full-length replicon was then assembled in plasmid pGem9zf(+) (Promega, Madison, Wis.) using standard molecular biology techniques. The replicon consists of (i) the HCV 5′ UTR fused to the first 12 amino acids of the capsid protein, (ii) the neomycin phosphotransferase gene (neo), (iii) the IRES from encephalomyocarditis virus (EMCV), and (iv) HCV NS3 to NS5B genes and the HCV 3′ UTR. Plasmid DNAs were linearized with ScaI and RNA transcripts were synthesized in vitro using the T7 MegaScript transcription kit (Ambion, Austin, Tex.) according to manufacturer's directions. In vitro transcripts of the cDNA were transfected into the human hepatoma cell line, HUH-7. […] Resulting cell lines were characterized for positive and negative strand RNA production and protein production over time.
The HCV replicon FRET assay was developed to monitor the inhibitory effects of compounds described in the disclosure on HCV viral replication. HUH-7 cells, constitutively expressing the HCV replicon, were grown in Dulbecco's Modified Eagle Media (DMEM) (Gibco-BRL) containing 10% Fetal calf serum (FCS) (Sigma) and 1 mg/ml G418 (Gibco-BRL). Cells were seeded the night before (1.5×10^4 cells/well) in 96-well tissue-culture sterile plates. Compound and no compound controls were prepared in DMEM containing 4% FCS, 1:100 Penicillin/Streptomysin (Gibco-BRL), 1:100 L-glutamine and 5% DMSO in the dilution plate (0.5% DMSO final concentration in the assay). Compound/DMSO mixes were added to the cells and incubated for 4 days at 37° C. After 4 days, cells were first assessed for cytotoxicity using alamar Blue (Trek Diagnotstic Systems) for a CC50 reading. The toxicity of compound (CC50) was determined by adding 1/10th volume of alamarBlue to the media incubating the cells. After 4 h, the fluorescence signal from each well was read, with an excitation wavelength at 530 nm and an emission wavelength of 580 nm, using the Cytofluor Series 4000 (Perspective Biosystems). Plates were then rinsed thoroughly with Phosphate-Buffered Saline (PBS) (3 times 150 μl). The cells were lysed with 25 μl of a lysis assay reagent containing an HCV protease substrate (5× cell Luciferase cell culture lysis reagent (Promega #E153A) diluted to 1× with distilled water, NaCl added to 150 mM final, the FRET peptide substrate (as described for the enzyme assay above) diluted to 10 μM final from a 2 mM stock in 100% DMSO. The plate was then placed into the Cytofluor 4000 instrument which had been set to 340 nm excitation/490 nm emissions, automatic mode for 21 cycles and the plate read in a kinetic mode. EC50 determinations were carried out as described for the IC50 determinations.

Test [2] has as its target T1, HCV NS3/4A protease complex (BMS strain) (UniProt P27958).
T1 construct: other: HCV NS3/4A enzyme assay; said of H77 and J4L6S; fused on or other part: Three-lysine solubilising tail at the NS4A C-terminus and a His tag from pET21b (Ni-NTA purification), for the H77 and J4L6S constructs
The test can be described thus: FRET peptide assay to monitor HCV NS3/4A proteolytic activity, BMS strain. The test is classed as biochemical, Hepatitis C virus (genotype 1a). As to conditions: read-out: IC50 Range; HCV NS3/4A enzyme assay; Table 1. An excerpt: HCV NS3 protease complexes, derived from the BMS strain, H77 strain or J4L6S strain, were generated, as described below. These purified recombinant proteins were generated for use in a homogeneous assay (see below) to provide an indication of how effective compounds of the present disclosure would be in inhibiting HCV NS3 proteolytic activity.
Serum from an HCV-infected patient was obtained from Dr. T. Wright, San Francisco Hospital. An engineered full-length cDNA (compliment deoxyribonucleic acid) template of the HCV genome (BMS strain) was constructed from DNA fragments obtained by reverse transcription-PCR (RT-PCR) of serum RNA (ribonucleic acid) and using primers selected on the basis of homology between other genotype 1a strains. From the determination of the entire genome sequence, a genotype 1a was assigned to the HCV isolate according to the classification of Simmonds et al. (See P Simmonds, K A Rose, S Graham, S W Chan, F McOmish, B C Dow, E A Follett, P L Yap and […] Marsden, J. Clin. Microbiol., 31(6), 1493-1503 (1993)). […] The infectious clones, H77 (1a genotype) and J4L6S (1b genotype) were obtained from R. Purcell (NIH) and the sequences are published in Genbank (AAB67036, see Yanagi, M., Purcell, R. H., Emerson, S. U. and Bukh, J. Proc. Natl. Acad. Sci. U.S.A. 94(16), 8738-8743 (1997); AF054247, see Yanagi, M., St Claire, M., Shapiro, M., Emerson, S. U., Purcell, R. H. and Bukh, J, Virology 244 (1), 161-172. (1998)).
NS3/4A protease complex-containing fractions were pooled and loaded on a desalting column Superdex-S200 pre-equilibrated with buffer D (25 mM HEPES, pH 7.5, 20% glycerol, 300 mM NaCl, 0.2% Triton X-100, 10 mM βME). Sample was loaded at a flow rate of 1 mL/min. NS3/4A protease complex-containing fractions were pooled and concentrated to approximately 0.5 mg/ml. The purity of the NS3/4A protease complexes, derived from the BMS, H77 and J4L6S strains, were judged to be greater than 90% by SDS-PAGE and mass spectrometry analyses. The enzyme was stored at −80° C., thawed on ice and diluted prior to use in assay buffer.
The purpose of this in vitro assay was to measure the inhibition of HCV NS3 protease complexes, derived from the BMS strain, H77 strain or J4L6S strain, as described above, by compounds of the present disclosure. This assay provides an indication of how effective compounds of the present disclosure would be in inhibiting HCV NS3 proteolytic activity.
In order to monitor HCV NS3/4A protease activity, an NS3/4A peptide substrate was used. The substrate was RET S1 (Resonance Energy Transfer Depsipeptide Substrate; AnaSpec, Inc. cat # 22991) (FRET peptide), described by Taliani et al. in Anal. Biochem. 240(2):60-67 (1996). The sequence of this peptide is loosely based on the NS4A/NS4B natural cleavage site for the HCV NS3 protease except there is an ester linkage rather than an amide bond at the cleavage site. The peptide also contains a fluorescence donor, EDANS, near one end of the peptide and an acceptor, DABCYL, near the other end. The fluorescence of the peptide is quenched by […] resonance energy transfer (RET) between the donor and the acceptor, but as the NS3 protease cleaves the peptide the products are released from RET quenching and the fluorescence of the donor becomes apparent.
The peptide substrate was incubated with one of the three recombinant NS3/4A protease complexes, in the absence or presence of a compound of the present disclosure. The inhibitory effects of a compound were determined by monitoring the formation of fluorescent reaction product in real time using a Cytofluor Series 4000.
Assay buffer: 50 mM HEPES, pH 7.5; 0.15 M NaCl; 0.1% Triton; 15% Glycerol; 10 mM βME. Substrate: 2 μM final concentration (from a 2 mM stock solution in DMSO stored at −20° C.). HCV NS3/4A protease type 1a (1b), 2-3 nM final concentration (from a 5 μM stock solution in 25 mM HEPES, pH 7.5, 20% glycerol, 300 mM NaCl, 0.2% Triton-X100, 10 mM βME). […]

Setting [3] is: Hepatitis C virus, Huh-7, read-out: EC50 Range, HCV replicon cell assay.
Where [4] appears, read: read-out: EC50 Range, HCV replicon cell assay.

T1 sequence (P27958 1027-1657, one chain of several): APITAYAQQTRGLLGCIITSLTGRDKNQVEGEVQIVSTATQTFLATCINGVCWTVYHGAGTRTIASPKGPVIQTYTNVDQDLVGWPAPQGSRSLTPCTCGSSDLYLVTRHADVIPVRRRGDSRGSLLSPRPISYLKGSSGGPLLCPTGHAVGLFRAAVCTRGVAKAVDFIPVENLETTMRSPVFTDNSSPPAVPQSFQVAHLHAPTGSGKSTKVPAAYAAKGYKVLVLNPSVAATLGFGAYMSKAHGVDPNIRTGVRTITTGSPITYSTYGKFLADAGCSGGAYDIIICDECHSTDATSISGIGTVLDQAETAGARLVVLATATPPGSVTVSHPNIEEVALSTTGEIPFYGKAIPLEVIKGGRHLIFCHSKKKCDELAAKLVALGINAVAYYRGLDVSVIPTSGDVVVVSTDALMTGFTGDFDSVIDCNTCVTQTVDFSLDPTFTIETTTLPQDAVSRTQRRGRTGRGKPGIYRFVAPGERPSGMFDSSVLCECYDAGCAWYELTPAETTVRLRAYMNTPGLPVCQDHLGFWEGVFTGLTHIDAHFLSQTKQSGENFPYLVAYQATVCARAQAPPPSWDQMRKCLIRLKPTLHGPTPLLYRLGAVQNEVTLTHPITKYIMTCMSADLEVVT

In the case of `C=C[C@@H]1C[C@]1(NC(=O)[C@@H]1C[C@@H](Oc2cc(-c3ccccc3)nc3cc(OC)ccc23)CN1C(=O)[C@@H](O)C(C)C)C(=O)NS(=O)(=O)C1CC1` (stereo in doubt) [Example 4,Compound 5], the pEC50 (as a rule, −log10 of the EC50, conventionally taken in molar units) in test [1] (setting [3]) is 5.30 to 6.30. Besides, the pIC50 (usually the IC50 on a negative log10 scale, so that one unit is a factor of ten) in test [2] was greater than 7.00.
Consider `C=C[C@@H]1C[C@]1(NC(=O)[C@@H]1C[C@@H](Oc2nccc3cc(OC)ccc23)CN1C(=O)[C@@H](O)C(C)C)C(=O)NS(=O)(=O)C1CC1` (stereo in doubt) [Example 52Compound 52], for which, in test [1] (setting [4]), the negative logarithm of the EC50 (pEC50) was less than 5.30. In test [2], the negative-log IC50 (pIC50) is 6.00 to 7.00.
On to `C=C[C@@H]1C[C@]1(NC(=O)[C@@H]1C[C@@H](Oc2nccc3cc(OC)ccc23)CN1C(=O)[C@@H](OC(=O)NC1CCCC1)C(C)C)C(=O)NS(=O)(=O)C1CC1` (stereo in doubt) [Example 53Compound 53], for which the pEC50 in test [1] (setting [4]) is less than 5.30. Besides, the pIC50 in test [2] was less than 6.00.
With `C=C[C@@H]1C[C@]1(NC(=O)[C@@H]1C[C@@H](Oc2cc(-c3ccccc3)nc3cc(OC)ccc23)CN1C(=O)[C@@H](O)c1ccccc1)C(=O)NS(=O)(=O)C1CC1` [Example 4,Compound 1], in test [1] (setting [3]), the pEC50 was less than 5.30. Besides, in test [2], the negative-log IC50 (pIC50) was 6.00 to 7.00.
The like results for `C=C[C@@H]1C[C@]1(NC(=O)[C@@H]1C[C@@H](Oc2cc(-c3ccccc3)nc3cc(OC)ccc23)CN1C(=O)C(O)CC(C)C)C(=O)NS(=O)(=O)C1CC1` (stereo partly drawn) [Example 4,Compound 2] were, in that order, 5.30 to 6.30 and 6.00 to 7.00.
For `C=C[C@@H]1C[C@]1(NC(=O)[C@@H]1C[C@@H](Oc2cc(-c3ccccc3)nc3cc(OC)ccc23)CN1C(=O)[C@@H](O)Cc1c[nH]cn1)C(=O)NS(=O)(=O)C1CC1` [Example 4,Compound 3], in that order: less than 5.30 and 6.00 to 7.00.
The like results for `C=C[C@@H]1C[C@]1(NC(=O)[C@@H]1C[C@@H](Oc2cc(-c3ccccc3)nc3cc(OC)ccc23)CN1C(=O)[C@@H](O)C1CCCCC1)C(=O)NS(=O)(=O)C1CC1` [Example 4,Compound 4] were, in that order, 5.30 to 6.30 and greater than 7.00.
Turning to `C=C[C@@H]1C[C@]1(NC(=O)[C@@H]1C[C@@H](Oc2cc(-c3ccccc3)nc3cc(OC)ccc23)CN1C(=O)[C@@H](O)CC(C)C)C(=O)NS(=O)(=O)C1CC1` [Example 4,Compound 6], the pEC50 in test [1] (setting [3]) was 5.30 to 6.30. Besides, the negative logarithm of the IC50 (pIC50) in test [2] is greater than 7.00.
Turning to `C=C[C@@H]1C[C@]1(NC(=O)C1CC(Oc2cc(-c3ccccc3)nc3cc(OC)ccc23)CN1C(=O)[C@@H](O)C(C)(C)C)C(=O)NS(=O)(=O)C1CC1` (stereo partly drawn) [Example 4,Compound 8], in test [1] (setting [3]), the pEC50 was 5.30 to 6.30. For the same compound, in test [2], the pIC50 is greater than 7.00.
As to `C=C[C@@H]1C[C@]1(NC(=O)[C@@H]1C[C@@H](Oc2cc(-c3ccccc3)nc3cc(OC)ccc23)CN1C(=O)[C@@H](OC(=O)NC(C)(C)C)C(C)(C)C)C(=O)NS(=O)(=O)C1CC1` [Example 5,Compound 1], the pEC50 in test [1] (setting [3]) is greater than 6.30. In addition, the negative logarithm of the IC50 (pIC50) in test [2] was greater than 7.00.
Regarding `C=C[C@@H]1C[C@]1(NC(=O)[C@@H]1C[C@@H](Oc2cc(-c3ccccc3)nc3cc(OC)ccc23)CN1C(=O)[C@@H](OC(=O)NC(C)C)C(C)(C)C)C(=O)NS(=O)(=O)C1CC1` [Example 5,Compound 2], the pEC50 in test [1] (setting [3]) is greater than 6.30. Further, the pIC50 in test [2] is greater than 7.00.
For `C=C[C@@H]1C[C@]1(NC(=O)[C@@H]1C[C@@H](Oc2cc(-c3ccccc3)nc3cc(OC)ccc23)CN1C(=O)[C@@H](OC(=O)NC1CCCC1)C(C)(C)C)C(=O)NS(=O)(=O)C1CC1` [Example 5,Compound 3], the pEC50 in test [1] (setting [3]) is greater than 6.30. Further, the pIC50 in test [2] was greater than 7.00.
Take `C=C[C@@H]1C[C@]1(NC(=O)[C@@H]1C[C@@H](Oc2cc(-c3ccccc3)nc3cc(OC)ccc23)CN1C(=O)[C@@H](OC(=O)Nc1ccccc1)C(C)(C)C)C(=O)NS(=O)(=O)C1CC1` [Example 5,Compound 4]: the negative logarithm of the EC50 (pEC50) in test [1] (setting [3]) was greater than 6.30. Moreover, the pIC50 in test [2] was greater than 7.00.
`C=C[C@@H]1C[C@]1(NC(=O)[C@@H]1C[C@@H](Oc2cc(-c3ccccc3)nc3cc(OC)ccc23)CN1C(=O)[C@@H](OC(=O)Nc1ccc(OC)cc1)C(C)(C)C)C(=O)NS(=O)(=O)C1CC1` [Example 5,Compound 5]: the pEC50 in test [1] (setting [3]) was 5.30 to 6.30. Also, the negative logarithm of the IC50 (pIC50) in test [2] was 6.00 to 7.00.
As for `C=C[C@@H]1C[C@]1(NC(=O)[C@@H]1C[C@@H](Oc2cc(-c3ccccc3)nc3cc(OC)ccc23)CN1C(=O)C1CC1)C(=O)NS(=O)(=O)C1CC1` [Example 19], the pIC50 in test [2] is 6.00 to 7.00.
Turning to `C=CCCCCCC(O)C(=O)N1C[C@H](Oc2nc(-c3ccccc3)cc3cc(OC)ccc23)CC1C(=O)N[C@]1(C(=O)NS(=O)(=O)C2CC2)CC1C=C` (stereo partly drawn) [Example 21], in test [2], the pIC50 is 6.00 to 7.00.

The values are drawn from patent publication US7323447B2, “Hepatitis C virus inhibitors” (Bristol-Myers Squibb Company, priority 2005, dated 2008).
